According to patent publication US20160108049A1 (TAKEDA Gmbh, priority 2011, published 2016):

Assays:
human PDE5 = molecular target: T1, human PDE5 (Homo sapiens, UniProt O76074); experiment: Inhibition of PDE5 activity (platelet lysate, SPA assay); format: biochemical; details: 0.5 μM cGMP, read-out: PDE5 Inhibitory values measured as -logIC50 (converted)
T1 construct: from tissue; host or cells: human platelets from fresh donor blood (platelet lysate)
How it was run: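 Human platelet lysate (10,000 g supernatant) served as PDE5 source, with 1 μM motapizone and 10 nM PDE2 inhibitor added, in Tris pH 7.4, 5 mM Mg2+, BSA. Substrate 0.5 μM [3H]cGMP, 10–20% conversion; 5 min preincubation then 15 min at 37 °C, stopped by SPA beads with IBMX. IC50 by non-linear regression.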

PDE4B1 = molecular target: T2, PDE4B1 (Homo sapiens, UniProt Q07343); experiment: Inhibition of PDE4 activity (PDE4B1, SPA assay); format: biochemical; details: recombinant PDE4B1, 0.5 μM cAMP; read-out: PDE4B1 Inhibitory values measured as -logIC50 (converted)
T2 construct: made in house; host or cells: SF21 insect cells (baculovirus; virus made in SF9 cells, pCR-Bac vector)
How it was run: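 Baculovirus-expressed enzyme from SF21 cell 1000×g supernatant; substrate 0.5 μM [3H]cAMP in 20 mM Tris pH 7.4, 5 mM Mg2+, 0.1 mg/ml BSA, 10-20% conversion. 5 min preincubation at 37 °C, 15 min reaction, stopped by SPA beads with IBMX; IC50 by non-linear regression.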

T2 sequence (Q07343 whole entry): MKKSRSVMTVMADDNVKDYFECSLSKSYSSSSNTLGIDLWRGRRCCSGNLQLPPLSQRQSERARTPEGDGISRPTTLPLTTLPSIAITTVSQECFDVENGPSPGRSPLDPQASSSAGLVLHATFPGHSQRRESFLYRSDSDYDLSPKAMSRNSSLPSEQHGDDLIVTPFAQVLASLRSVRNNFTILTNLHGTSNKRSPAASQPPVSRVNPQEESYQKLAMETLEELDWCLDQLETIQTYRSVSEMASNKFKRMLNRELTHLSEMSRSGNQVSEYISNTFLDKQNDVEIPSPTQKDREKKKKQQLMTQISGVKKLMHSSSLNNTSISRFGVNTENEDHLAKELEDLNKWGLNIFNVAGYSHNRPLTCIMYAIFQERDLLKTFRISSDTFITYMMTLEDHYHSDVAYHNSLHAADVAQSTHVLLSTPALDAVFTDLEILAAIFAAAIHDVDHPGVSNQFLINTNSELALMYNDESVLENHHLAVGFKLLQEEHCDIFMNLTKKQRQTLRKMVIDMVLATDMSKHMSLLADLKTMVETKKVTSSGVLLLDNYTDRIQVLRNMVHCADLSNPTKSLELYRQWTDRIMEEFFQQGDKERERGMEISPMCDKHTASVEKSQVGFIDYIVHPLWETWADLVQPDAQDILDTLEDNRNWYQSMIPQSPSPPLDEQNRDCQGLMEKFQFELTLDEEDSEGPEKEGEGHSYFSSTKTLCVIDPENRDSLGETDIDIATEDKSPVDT

SMILES | IC50 (human PDE5) [nM] | IC50 (PDE4B1) [nM]
COc1ccc(C2=NN(C3CCN(C(=O)C[C@@H](Cc4ccccc4)NC(=O)c4c[nH]c5c(-c6c(OCC7CC7)ccc7c6OCO7)ncnc45)CC3)C(=O)[C@@H]3CCCC[C@H]23)cc1OC [Example 77, 4-[5-(cyclopropylmethoxy)-1,3-benzodioxol-4-yl]-N-[(2R)-4-{4-[(4aS,8aR)-4-(3,4-dimethoxyphenyl)-1-oxo-4a,5,6,7,8,8a-hexahydrophthalazin-2(1H)-yl]piperidin-1-yl}-4-oxo-1-phenylbutan-2-yl]-5H-pyrrolo[3,2-d]pyrimidine-7-carboxamide] | 1 to 10 | 1 to 10
CCC1(CC)CC(c2ccc(OC)c(OC)c2)=NN(C2CCN(C(=O)[C@@H](Cc3ccccc3)NC(=O)c3c[nH]c4c(-c5c(OCC6CC6)ccc6c5OCO6)ncnc34)CC2)C1=O [Example 116, 4-[5-(cyclopropylmethoxy)-1,3-benzodioxol-4-yl]-N-[(2R)-1-{4-[3-(3,4-dimethoxyphenyl)-5,5-diethyl-6-oxo-5,6-dihydropyridazin-1(4H)-yl]piperidin-1-yl}-1-oxo-3-phenylpropan-2-yl]-5H-pyrrolo[3,2-d]pyrimidine-7-carboxamide] | 1 to 10 | 1 to 10
COc1cc(OCC2CC2)c(-c2ncnc3c(C(=O)N[C@@H](Cc4cccc(C)c4)C(=O)N4CCC(N5N=C(c6ccc(OC)c(OC)c6)[C@H]6CCCC[C@H]6C5=O)CC4)c(C)[nH]c23)cc1F [Example 2, 4-[2-(cyclopropylmethoxy)-5-fluoro-4-methoxyphenyl]-N-[(2S)-1-{4-[(4aS,8aR)-4-(3,4-dimethoxyphenyl)-1-oxo-4a,5,6,7,8,8a-hexahydrophthalazin-2(1H)-yl]piperidin-1-yl}-3-(3-methylphenyl)-1-oxopropan-2-yl]-6-methyl-5H-pyrrolo[3,2-d]pyrimidine-7-carboxamide] | 1 to 10 | 1 to 10
COc1ccc(C2=NN(C3CCN(C(=O)[C@H](Cc4ccc(F)cc4)NC(=O)c4c[nH]c5c(-c6c(OCC7CC7)ccc7c6OCO7)ncnc45)CC3)C(=O)[C@@H]3CCCC[C@H]23)cc1OC [Example 47, 4-[5-(cyclopropylmethoxy)-1,3-benzodioxol-4-yl]-N-[(2S)-1-{4-[(4aS,8aR)-4-(3,4-dimethoxyphenyl)-1-oxo-4a,5,6,7,8,8a-hexahydrophthalazin-2(1H)-yl]piperidin-1-yl}-3-(4-fluorophenyl)-1-oxopropan-2-yl]-5H-pyrrolo[3,2-d]pyrimidine-7-carboxamide] | 1 to 10 | 1 to 10
COc1ccc(C2=NN(C3CCN(C(=O)[C@H](CC4CCCCC4)NC(=O)c4c[nH]c5c(-c6c(OCC7CC7)ccc7c6OCO7)ncnc45)CC3)C(=O)C(C)(C)C2)cc1OC [Example 94, N-[(2S)-3-cyclohexyl-1-{4-[3-(3,4-dimethoxyphenyl)-5,5-dimethyl-6-oxo-5,6-dihydropyridazin-1(4H)-yl]piperidin-1-yl}-1-oxopropan-2-yl]-4-[5-(cyclopropylmethoxy)-1,3-benzodioxol-4-yl]-5H-pyrrolo[3,2-d]pyrimidine-7-carboxamide] | < 1 | 1 to 10
COc1ccc(C2=NN(C3CCN(C(=O)[C@H](Cc4ccccc4)NC(=O)c4c[nH]c5c(-c6c(OCC7CC7)ccc7c6OCO7)ncnc45)CC3)C(=O)[C@H]3CCCC[C@@H]23)cc1OC [Example 44, 4-[5-(cyclopropylmethoxy)-1,3-benzodioxol-4-yl]-N-[(2S)-1-{4-[(4aR,8aS)-4-(3,4-dimethoxyphenyl)-1-oxo-4a,5,6,7,8,8a-hexahydrophthalazin-2(1H)-yl]piperidin-1-yl}-1-oxo-3-phenylpropan-2-yl]-5H-pyrrolo[3,2-d]pyrimidine-7-carboxamide] | 1 to 10 | > 10
COc1ccc(C2=NN(C3CCN(C(=O)C[C@@H](Cc4ccccc4)NC(=O)c4c[nH]c5c(-c6c(OCC7CC7)ccc7c6OCO7)ncnc45)CC3)C(=O)C(C)(C)C2)cc1OC [Example 78, 4-[5-(cyclopropylmethoxy)-1,3-benzodioxol-4-yl]-N-[(2R)-4-{4-[3-(3,4-dimethoxyphenyl)-5,5-dimethyl-6-oxo-5,6-dihydropyridazin-1(4H)-yl]piperidin-1-yl}-4-oxo-1-phenylbutan-2-yl]-5H-pyrrolo[3,2-d]pyrimidine-7-carboxamide] | 1 to 10 | 1 to 10
CCOc1ccc(C[C@@H](NC(=O)c2c(C)[nH]c3c(-c4c(OCC5CC5)ccc5c4OCO5)ncnc23)C(=O)N2CCC(N3N=C(c4ccc(OC)c(OC)c4)[C@H]4CCCC[C@H]4C3=O)CC2)cc1 [Example 10, 4-[5-(cyclopropylmethoxy)-1,3-benzodioxol-4-yl]-N-[(2R)-1-{4-[(4aS,8aR)-4-(3,4-dimethoxyphenyl)-1-oxo-4a,5,6,7,8,8a-hexahydrophthalazin-2(1H)-yl]piperidin-1-yl}-3-(4-ethoxyphenyl)-1-oxopropan-2-yl]-6-methyl-5H-pyrrolo[3,2-d]pyrimidine-7-carboxamide] | < 1 | < 1
COc1ccc(C2=NN(C3CCN(C(=O)[C@@H](Cc4ccc(C(C)(C)C)cc4)NC(=O)c4c(C)[nH]c5c(-c6c(OCC7CC7)ccc7c6OCO7)ncnc45)CC3)C(=O)[C@@H]3CCCC[C@H]23)cc1OC [Example 46, N-[(2R)-3-(4-tert-butylphenyl)-1-{4-[(4aS,8aR)-4-(3,4-dimethoxyphenyl)-1-oxo-4a,5,6,7,8,8a-hexahydrophthalazin-2(1H)-yl]piperidin-1-yl}-1-oxopropan-2-yl]-4-[5-(cyclopropylmethoxy)-1,3-benzodioxol-4-yl]-6-methyl-5H-pyrrolo[3,2-d]pyrimidine-7-carboxamide] | 1 to 10 | 1 to 10
COc1ccc(C2=NN(C3CCN(C(=O)[C@@H](CCC(=O)N(C)C)NC(=O)c4c(C)[nH]c5c(-c6c(OCC7CC7)ccc7c6OCO7)ncnc45)CC3)C(=O)C(C)(C)C2)cc1OC [Example 118, 4-[5-(cyclopropylmethoxy)-1,3-benzodioxol-4-yl]-N-[(2R)-1-{4-[3-(3,4-dimethoxyphenyl)-5,5-dimethyl-6-oxo-5,6-dihydropyridazin-1(4H)-yl]piperidin-1-yl}-5-(dimethylamino)-1,5-dioxopentan-2-yl]-6-methyl-5H-pyrrolo[3,2-d]pyrimidine-7-carboxamide] | < 1 | 1 to 10
COc1ccc(C2=NN(C3CCN(C(=O)[C@@H](Cc4cccc(C)c4)NC(=O)c4c[nH]c5c(-c6c(OCC7CC7)ccc7c6OCO7)ncnc45)CC3)C(=O)[C@@H]3CCCC[C@H]23)cc1OC [Example 20, 4-[5-(cyclopropylmethoxy)-1,3-benzodioxol-4-yl]-N-[(2R)-1-{4-[(4aS,8aR)-4-(3,4-dimethoxyphenyl)-1-oxo-4a,5,6,7,8,8a-hexahydrophthalazin-2(1H)-yl]piperidin-1-yl}-3-(3-methylphenyl)-1-oxopropan-2-yl]-5H-pyrrolo[3,2-d]pyrimidine-7-carboxamide] | < 1 | 1 to 10
COc1ccc(C2=NN(C3CCN(C(=O)CNC(=O)c4c[nH]c5c(-c6c(OCC7CC7)ccc7c6OCO7)ncnc45)CC3)C(=O)[C@@H]3CCCC[C@H]23)cc1OC [Example 59, 4-[5-(cyclopropylmethoxy)-1,3-benzodioxol-4-yl]-N-(2-{4-[(4aS,8aR)-4-(3,4-dimethoxyphenyl)-1-oxo-4a,5,6,7,8,8a-hexahydrophthalazin-2(1H)-yl]piperidin-1-yl}-2-oxoethyl)-5H-pyrrolo[3,2-d]pyrimidine-7-carboxamide] | 1 to 10 | < 1
COc1ccc(C2=NN(C3CCN(C(=O)[C@H](NC(=O)c4c[nH]c5c(-c6c(OCC7CC7)ccc7c6OCO7)ncnc45)C(C)(C)C)CC3)C(=O)[C@@H]3CCCC[C@H]23)cc1OC [Example 121, 4-[5-(cyclopropylmethoxy)-1,3-benzodioxol-4-yl]-N-[(2R)-1-{4-[(4aS,8aR)-4-(3,4-dimethoxyphenyl)-1-oxo-4a,5,6,7,8,8a-hexahydrophthalazin-2(1H)-yl]piperidin-1-yl}-3,3-dimethyl-1-oxobutan-2-yl]-5H-pyrrolo[3,2-d]pyrimidine-7-carboxamide] | 1 to 10 | 1 to 10
CC[C@H](C)[C@H](NC(=O)c1c[nH]c2c(-c3c(OCC4CC4)ccc4c3OCO4)ncnc12)C(=O)N1CCC(N2N=C(c3ccc(OC)c(OC)c3)[C@H]3CCCC[C@H]3C2=O)CC1 [Example 71, 4-[5-(cyclopropylmethoxy)-1,3-benzodioxol-4-yl]-N-[(2S,3S)-1-{4-[(4aS,8aR)-4-(3,4-dimethoxyphenyl)-1-oxo-4a,5,6,7,8,8a-hexahydrophthalazin-2(1H)-yl]piperidin-1-yl}-3-methyl-1-oxopentan-2-yl]-5H-pyrrolo[3,2-d]pyrimidine-7-carboxamide] | 1 to 10 | < 1
COc1ccc(C2=NN(C3CCN(C(=O)[C@H](Cc4ccncc4)NC(=O)c4c(C)[nH]c5c(-c6c(OCC7CC7)ccc7c6OCO7)ncnc45)CC3)C(=O)[C@@H]3CCCC[C@H]23)cc1OC [Example 40, 4-[5-(cyclopropylmethoxy)-1,3-benzodioxol-4-yl]-N-[(2S)-1-{4-[(4aS,8aR)-4-(3,4-dimethoxyphenyl)-1-oxo-4a,5,6,7,8,8a-hexahydrophthalazin-2(1H)-yl]piperidin-1-yl}-1-oxo-3-(pyridin-4-yl)propan-2-yl]-6-methyl-5H-pyrrolo[3,2-d]pyrimidine-7-carboxamide] | < 1 | 1 to 10
